Test results reported in BindingDB's records for doi:10.1021/jm8008647 (Ewha Womans University, 2008).
pKi: −log10 of the molar value.

Molecular target: T1, Adenosine receptor A3 (Rattus norvegicus, UniProt P28647)
T1 sequence (P28647 whole entry): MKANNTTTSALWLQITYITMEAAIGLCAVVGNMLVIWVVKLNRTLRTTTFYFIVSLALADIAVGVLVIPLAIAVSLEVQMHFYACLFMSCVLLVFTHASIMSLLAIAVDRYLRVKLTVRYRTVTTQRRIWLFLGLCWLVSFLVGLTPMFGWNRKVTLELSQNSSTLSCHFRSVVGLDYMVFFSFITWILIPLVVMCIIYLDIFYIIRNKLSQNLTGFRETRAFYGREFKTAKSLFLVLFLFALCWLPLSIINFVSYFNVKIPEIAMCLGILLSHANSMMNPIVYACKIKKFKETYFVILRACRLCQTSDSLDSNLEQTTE
Assay: Displacement of [125I]I-AB-MECA from rat adenosine A3 receptor expressed in CHO cells

pKi: 7.32
Structure (SMILES): O[C@@H]1[C@H](O)CS[C@H]1n1cnc2c(NCc3cccc(I)c3)ncnc21 [(2R,3R,4S)-2-(6-(3-Iodobenzylamino)-9H-purin-9-yl)-tetrahydrothiophene-3,4-diol]
